Laboratory results as given in patent US6737383B1, “Herbicidal oxadiazolidines” (priority 1999, dated 2004).

Legend:
morningglory = experiment: Test B pre/postemergence morningglory; type: in vivo, Ipomoea hederacea
How it was run: (§1)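 Test chemicals in a non-phytotoxic solvent mixture with surfactant were sprayed preemergence onto planted seeds and postemergence onto plants 2 to 18 cm tall (1- to 4-leaf stage). After twelve to sixteen days in a greenhouse, injury was visually rated against untreated controls from 0 (no effect) to 10 (complete control).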

crabgrass = experiment: Test B pre/postemergence crabgrass; type: in vivo, Digitaria sanguinalis
How it was run: as §1

bamyardgrass = experiment: Test B flood test barnyardgrass; type: in vivo, Echinochloa crus-galli
How it was run: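 Plants were grown to the 2-leaf stage before treatment with test chemical, then held in a greenhouse for twelve to sixteen days. Injury was visually rated against untreated controls on a 0–10 scale, where 0 is no effect and 10 is complete control.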

blackgrass = experiment: Test B pre/postemergence blackgrass; type: in vivo, Alopecurus myosuroides
How it was run: as §1

[1] = Postemergence, Rate 1000 g/ha, scale 0 to 10 (0 no effect, 10 complete control)
[2] = Preemergence, Rate 250 g/ha, scale of 0 to 10 where 0 is no effect and 10 is complete control
[3] = Preemergence, Rate 500 g/ha, scale of 0 to 10 where 0 is no effect and 10 is complete control
[4] = Rate 125 g/ha, Postemergence, scale of 0 to 10 where 0 is no effect and 10 is complete control
[5] = Rate 125 g/ha, Preemergence, scale of 0 to 10 where 0 is no effect and 10 is complete control
[6] = Rate 250 g/ha, Postemergence, scale of 0 to 10 where 0 is no effect and 10 is complete control
[7] = Rate 500 g/ha, Postemergence, scale 0 to 10, 0 no effect, 10 complete control
[8] = Rate 1000 g/ha, Preemergence, scale 0 to 10 (0 no effect, 10 complete control)
[9] = Rate 125 g/ha, Pre-emergence, flood test species, scale 0 to 10 where 0 is no effect and 10 is complete control
[10] = Rate 250 g/ha, Pre-emergence, flood-test species, scale 0 to 10, 0 is no effect, 10 is complete control
[11] = Rate 500 g/ha, Pre-emergence, flood test species, scale 0 to 10 (0 no effect, 10 complete control)
[12] = Preemergence, Rate 62 g/ha, scale of 0 to 10 where 0 is no effect and 10 is complete control
[13] = Rate 62 g/ha, Postemergence, scale 0 to 10 (0 no effect, 10 complete control)
[14] = Rate 62 g/ha, headed Pre-emergence (flood test species), scale 0 to 10 (0 no effect, 10 complete control)
[15] = Postemergence, Rate 31 g/ha, visual rating, scale 0 to 10 (0 no effect, 10 complete control)
[16] = Preemergence, Rate 31 g/ha, visual rating, scale 0 to 10 (0 no effect, 10 complete control)

| SMILES | Morningglory plant response rating (morningglory; [2]) | Morningglory plant response rating (morningglory; [4]) | Plant response rating, Morningglory (morningglory; [6]) | Crabgrass plant response rating (crabgrass; [2]) | Crabgrass plant response rating (crabgrass; [4]) | Plant response rating, Crabgrass (crabgrass; [6]) | Barnyardgrass plant response rating (bamyardgrass; [9]) | Barnyardgrass plant response rating (bamyardgrass; [10]) | Barnyardgrass plant response rating (bamyardgrass; [11]) | Blackgrass plant response rating (blackgrass; [2]) | Blackgrass plant response rating (blackgrass; [4]) | Plant response rating, Blackgrass (blackgrass; [6]) | Blackgrass plant response rating (blackgrass; [7]) | Morningglory plant response rating (morningglory; [12]) | Morningglory plant response rating (0 to 10 scale) (morningglory; Preemergence, Rate 125 g/ha) | Morningglory plant response rating (morningglory; [13]) | Crabgrass plant response rating (crabgrass; [12]) | Crabgrass plant response rating (0 to 10 scale) (crabgrass; Preemergence, Rate 125 g/ha) | Crabgrass plant response rating (crabgrass; [13]) | Barnyardgrass plant response rating (bamyardgrass; [14]) | other results |
| --- | --- | --- | --- | --- | --- | --- | --- | --- | --- | --- | --- | --- | --- | --- | --- | --- | --- | --- | --- | --- | --- |
| C=CCn1c(=O)on(C(=O)N(c2ccc(F)cc2)C(C)C(=O)OCC)c1=O (centres unmarked) [Compound 279] | 0 | 1 | 2 | 0 | 0 | 0 | 0 | 0 | 0 | 0 | 0 | 2 | 4 | – | – | – | – | – | – | – | Morningglory plant response rating (morningglory; [1]): 3; Plant response rating, Morningglory (morningglory; [3]): 0; Morningglory plant response rating (morningglory; [5]): 0; Morningglory plant response rating (morningglory; [7]): 2; Plant response rating, Morningglory (morningglory; [8]): 0; Plant response rating, Crabgrass (crabgrass; [3]): 1; Crabgrass plant response rating (crabgrass; [5]): 0; Crabgrass plant response rating (crabgrass; [7]): 0; Plant response rating, Crabgrass (crabgrass; [8]): 4; Barnyardgrass plant response rating (bamyardgrass; Pre-emergence, Rate 1000 g/ha, scale 0 to 10 (0 no effect, 10 complete control)): 0; Blackgrass plant response rating (blackgrass; [1]): 6; Plant response rating, Blackgrass (blackgrass; [3]): 0; Blackgrass plant response rating (blackgrass; [5]): 0; Plant response rating, Blackgrass (blackgrass; [8]): 0 |
| CC(C)N(C(=O)n1oc(=O)n(C2CCCCO2)c1=O)c1ccc(F)cc1 (centres unmarked) [Compound 311] | 0 | 4 | 8 | 0 | 0 | 0 | 0 | 0 | 0 | 0 | 0 | 0 | 0 | 0 | 0 | 0 | 0 | 0 | 0 | 0 | Morningglory plant response rating (morningglory; [3]): 0; Crabgrass plant response rating (crabgrass; [3]): 0; Blackgrass plant response rating (blackgrass; [12]): 0; Blackgrass plant response rating (0 to 10 scale) (blackgrass; Preemergence, Rate 125 g/ha): 0; Blackgrass plant response rating (blackgrass; [3]): 0; Blackgrass plant response rating (blackgrass; [13]): 0 |
| Cc1cccc(C)c1-n1c(=O)on(C(=O)N(c2ccc(Cl)cc2Cl)C2CCC2)c1=O [Compound 318] | 0 | 0 | 3 | 0 | 0 | 0 | 0 | 0 | – | 0 | 0 | 0 | – | 0 | 0 | 0 | 0 | 0 | 0 | 0 | Morningglory plant response rating (morningglory; [15]): 0; Crabgrass plant response rating (crabgrass; [15]): 0; Crabgrass plant response rating (crabgrass; [16]): 0; Barnyardgrass plant response rating (bamyardgrass; Rate 31 g/ha, Pre-emergence section (flood test species), scale 0 to 10): 0; Blackgrass plant response rating (blackgrass; [15]): 0; Blackgrass plant response rating (blackgrass; [16]): 0; Blackgrass plant response rating (blackgrass; [12]): 0; Blackgrass plant response rating (0 to 10 scale) (blackgrass; Preemergence, Rate 125 g/ha): 0; Blackgrass plant response rating (blackgrass; [13]): 0 |
